Test results reported in ChEMBL document CHEMBL1201862, “PubChem BioAssay data set” (2004).
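Five concentrations, 48 hours, 96-well plates. The concentration for 50% growth inhibition is given as GI50.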 Calls of active or inactive are those of the source. Rule as the data show it: active = GI50 up to about 1.1 µM and inactive = higher.

Key:
Assay in all cases: inhibition of tumour cell growth, NCI panel, 48 h
SNB-78 = test system: SNB-78
LXFL 529 = test system: LXFL 529
DLD-1 = test system: DLD-1
DMS-114 = test system: DMS-114
M19-MEL = test system: M19-MEL
KM-20L2 = test system: KM-20L2
RXF 631 = test system: RXF 631
HOP-18 = test system: HOP-18
BT-549 = test system: BT-549

Row | Structure (SMILES) | GI50 (SNB-78) | GI50 (LXFL 529) | GI50 (DLD-1) | GI50 (DMS-114) | GI50 (M19-MEL) | GI50 (KM-20L2) | GI50 (RXF 631) | GI50 (HOP-18) | GI50 (BT-549)
1 | CCOc1ccccc1NC(=O)C1=C(C)NC(C)=C(C(=O)Nc2ccccc2OCC)C1c1ccc2c(c1)OCO2 | 24.6 µM (inactive) | 17.9 µM (inactive) | 22.2 µM (inactive) | 16.9 µM (inactive) | 30.1 µM (inactive) | 26.4 µM (inactive) | – | – | –
2 | O=C(N[C@H]1CC2(C=C(I)C(=O)C(I)=C2)OC1=O)OCc1ccccc1 | 17.4 µM (inactive) | 16.6 µM (inactive) | 15.7 µM (inactive) | 19.8 µM (inactive) | – | 18.6 µM (inactive) | 17.1 µM (inactive) | – | –
3 | Cn1nc(-c2ccccc2)c(C(=O)/C=C/c2ccc(F)cc2)c(N2CCOCC2)c1=O | – | 16 µM (inactive) | 23.1 µM (inactive) | 15.9 µM (inactive) | 18.5 µM (inactive) | 15.1 µM (inactive) | 27.7 µM (inactive) | 17.3 µM (inactive) | –
4 | N#Cc1c2c(c(Cl)n3c1nc1ccccc13)CCCC2 | 3.89 µM (inactive) | – | 10.6 µM (inactive) | 1.86 µM (inactive) | 3.61 µM (inactive) | 2.49 µM (inactive) | – | – | –
5 | CCOC(=O)C1=C(C)NC(=S)NC1c1ccccc1 (stereo not drawn) | > 100 µM (inactive) | 76.4 µM (inactive) | > 57.9 µM (inactive) | > 39.9 µM (inactive) | > 43.9 µM (inactive) | > 41.4 µM (inactive) | > 100 µM (inactive) | > 35.6 µM (inactive) | –
6 | Cc1ccc(C(=O)/C=C2\Nc3c(c(=O)oc4ccccc34)N=C2NC23CC4CC(CC(C4)C2)C3)cc1 | – | > 100 µM (inactive) | 89.9 µM (inactive) | > 100 µM (inactive) | > 100 µM (inactive) | > 100 µM (inactive) | – | – | –
7 | CN(C)CCNC(=O)c1ccc(Cl)c2c(Nc3ccc(S(=O)(=O)N=C(N)N)cc3)c3ccccc3nc12 | 12.1 µM (inactive) | 3.94 µM (inactive) | 5.62 µM (inactive) | 0.993 µM (active) | 3.86 µM (inactive) | 5.53 µM (inactive) | – | – | –
8 | Brc1cc2c(cc1C1SCCS1)OCO2 | > 100 µM (inactive) | > 100 µM (inactive) | > 100 µM (inactive) | 37.3 µM (inactive) | – | > 100 µM (inactive) | > 100 µM (inactive) | > 100 µM (inactive) | –
9 | CCc1cccc(=O)c([O-])c1.CCc1cccc(=O)c([O-])c1.[Bi+3].[Cl-] | 7.19 µM (inactive) | 1.71 µM (inactive) | 2.91 µM (inactive) | 3.01 µM (inactive) | 6.98 µM (inactive) | 10.5 µM (inactive) | 4.13 µM (inactive) | 16.2 µM (inactive) | –
10 | O=C1C=C(Nc2ccccc2C(=O)CC(=O)C(=O)Nc2cccc(C(F)(F)F)c2)c2ccccc2C1=O | > 36.7 µM (inactive) | 18.3 µM (inactive) | 8.45 µM (inactive) | 13 µM (inactive) | 2.53 µM (inactive) | > 100 µM (inactive) | > 100 µM (inactive) | 13.2 µM (inactive) | 8.93 µM (inactive)
11 | O=C1c2cccc3cccc(c23)C(=O)N1CCN(CCO)CCO | 42.1 µM (inactive) | 32.3 µM (inactive) | 30.6 µM (inactive) | – | 21.5 µM (inactive) | 21.1 µM (inactive) | 35.8 µM (inactive) | 75 µM (inactive) | –
12 | CNC(=O)OCc1nccc2c(C)c3[nH]c4ccc(OC)cc4c3cc12 | 16.6 µM (inactive) | 5.74 µM (inactive) | 2.99 µM (inactive) | 2.92 µM (inactive) | 5.61 µM (inactive) | 3.11 µM (inactive) | – | 2.47 µM (inactive) | –
13 | Cc1c(C(=O)O)oc2ccc([N+](=O)[O-])cc12 | > 100 µM (inactive) | > 100 µM (inactive) | > 100 µM (inactive) | > 100 µM (inactive) | > 100 µM (inactive) | > 100 µM (inactive) | > 100 µM (inactive) | > 100 µM (inactive) | –
14 | O=S1(=O)N2CN3CN(C2)CN1C3 | 28.1 µM (inactive) | 18.2 µM (inactive) | 33.4 µM (inactive) | 23.7 µM (inactive) | 62.1 µM (inactive) | > 91.8 µM (inactive) | – | > 50.1 µM (inactive) | –
15 | C1=C2/CC[C@H](Sc3ccccc3)[C@H]2C2(CCCCC/1)OCCO2 | 94 µM (inactive) | 46.7 µM (inactive) | 61.4 µM (inactive) | – | 25.1 µM (inactive) | 21.1 µM (inactive) | – | 72.8 µM (inactive) | –
16 | CN1C(=O)CCC2[C@@H]3CC=C4C[C@@H](O)CC[C@]4(C)C3CC[C@@]21C (stereo partly drawn) | > 100 µM (inactive) | 29.1 µM (inactive) | > 100 µM (inactive) | 16.4 µM (inactive) | 50.6 µM (inactive) | 53.5 µM (inactive) | 28 µM (inactive) | – | –
17 | NC1=NC(=O)/C(=C/c2ccccc2[N+](=O)[O-])C(N)=N1 | > 100 µM (inactive) | > 100 µM (inactive) | > 100 µM (inactive) | > 100 µM (inactive) | > 100 µM (inactive) | > 100 µM (inactive) | > 100 µM (inactive) | > 100 µM (inactive) | –
18 | CC1=CP(=O)(OC(C)C)CC(C)=C1Cl (stereo not drawn) | > 100 µM (inactive) | > 100 µM (inactive) | > 100 µM (inactive) | > 100 µM (inactive) | > 100 µM (inactive) | > 100 µM (inactive) | – | – | –
19 | Cc1cccc(NC(=O)CC(=O)N2N=C(N(CCC#N)c3ccc(Cl)cc3)CC2c2ccccc2)c1 (stereo not drawn) | > 100 µM (inactive) | > 100 µM (inactive) | > 100 µM (inactive) | > 100 µM (inactive) | > 100 µM (inactive) | – | > 100 µM (inactive) | > 100 µM (inactive) | –
20 | Cc1ccccc1NC(=O)/C(=N/NC(=O)CC#N)C1C(=O)N(c2ccccc2)N=C1N (stereo not drawn) | > 100 µM (inactive) | > 100 µM (inactive) | 79.6 µM (inactive) | > 100 µM (inactive) | > 100 µM (inactive) | > 100 µM (inactive) | > 100 µM (inactive) | > 100 µM (inactive) | –
21 | CN(C)CC1(Cc2ccccc2)CCC(Cc2ccccc2)C1=O (stereo not drawn) | 15.8 µM (inactive) | 2.71 µM (inactive) | 2.86 µM (inactive) | 15.8 µM (inactive) | 16.5 µM (inactive) | 17.1 µM (inactive) | – | 8.47 µM (inactive) | 8.95 µM (inactive)
22 | CCOC(=O)C(=O)Nc1ccccc1C(C)C | – | > 100 µM (inactive) | > 100 µM (inactive) | > 100 µM (inactive) | > 100 µM (inactive) | > 100 µM (inactive) | > 100 µM (inactive) | > 100 µM (inactive) | –
23 | O=c1c2c([nH]c3cc4c(cc13)OCO4)-c1ccccc1C2 | 30.5 µM (inactive) | 22.7 µM (inactive) | 23.5 µM (inactive) | – | – | 19 µM (inactive) | – | 24.2 µM (inactive) | –
24 | CC1(C)C(=O)N(CCCCCCN2C(=O)C(C)(C)c3ccccc32)c2ccccc21 | 96.4 µM (inactive) | 39.1 µM (inactive) | – | 21.6 µM (inactive) | 22.6 µM (inactive) | 37.2 µM (inactive) | – | 81.1 µM (inactive) | –
25 | COC(=O)C1=CC2C=CC(C1C(=O)OC)C1C(C(=O)OC)=C(C(=O)OC)C(C(=O)OC)=C(C(=O)OC)C21OC (stereo not drawn) | > 100 µM (inactive) | > 100 µM (inactive) | > 100 µM (inactive) | > 100 µM (inactive) | > 100 µM (inactive) | > 100 µM (inactive) | > 100 µM (inactive) | > 100 µM (inactive) | –
26 | CC1=NN(C(=O)c2ccccc2O)C(=O)/C1=C/c1ccccc1O | – | 0.0573 µM (active) | 0.0807 µM (active) | 0.0853 µM (active) | – | 11.5 µM (inactive) | – | – | 0.438 µM (active)
27 | COC(=O)N1C=CC2=C(C)C3Nc4ccccc4C3C(C)=C2C1 (stereo not drawn) | 0.546 µM (active) | 0.953 µM (active) | 1.74 µM (inactive) | 23 µM (inactive) | 2.78 µM (inactive) | 0.697 µM (active) | – | – | –
28 | COc1cc(C(=O)OC2CC34CCNC35CC(OC5(OC)C2O)c2cc3c(cc24)OCO3)ccc1O (stereo not drawn) | – | – | – | – | – | – | – | – | > 100 µM (inactive)
29 | COc1ccc2cccc(C(=O)c3ccc(C)c4c3CCC4)c2c1 | – | 29.6 µM (inactive) | 21.5 µM (inactive) | 32.4 µM (inactive) | 37.8 µM (inactive) | 35.9 µM (inactive) | 23 µM (inactive) | 33.3 µM (inactive) | –
30 | CCOc1ccccc1NC(=O)CC1SC(Nc2ccc([N+](=O)[O-])cc2)=NC1=O (stereo not drawn) | 28.8 µM (inactive) | 17.7 µM (inactive) | 22.9 µM (inactive) | 13.1 µM (inactive) | 25.4 µM (inactive) | 19.4 µM (inactive) | – | 17.6 µM (inactive) | –
